Laboratory results taken from patent US7273847B2, “Peptides with antioxidant and antimicrobial properties” (priority 2000, dated 2007).

What was measured:
[1] = tested on: E. coli K12; test: Radial diffusion growth inhibition in agar; format: cell-based; settings: for Inhibition of E. coli growth in presence of anti-mouse SP-A / anti-mouse SP-D antibodies / Inhibition of E. coli growth in presence of excess LPS vesicles: radial diffusion; for Inhibition of E. coli growth in presence of excess LPS vesicles: for SP-A>SP-D
Experimental: (§1) A radial diffusion method was therefore used to examine the effect of the collectins and their individual structural domains on the growth of E. coli that were immobilized in agar (FIGS. 8,9). Wells were bored into plates containing agar impregnated with 2×10^6 E. coli/ml or GBS. Proteins to be tested were introduced into the wells and the plates were incubated overnight at 37° C.

[2] = tested on: GBS; test: Radial diffusion growth inhibition in agar; format: cell-based; settings: 0.5 and 5.0 μg added
Experimental: as §1

[3] = tested on: surfactant lipids; test: TBARS assay of copper-induced oxidation of surfactant lipids; format: biochemical
[4] = tested on: LDL; test: TBARS assay of copper-induced oxidation of LDL; format: biochemical, human; settings: for TBARS LDL Malondialdehyde: mean ± S.E.M., n=3
Experimental: Substrates for lipid oxidation included mixtures of natural and synthetic glycerophospholipids that are found in pulmonary surfactant and human LDL. The surfactant lipid mix, composed of egg phosphatidylcholine, dipalmitoylphosphatidylcholine, cholesterol and 1-oleoyl-2-linoleoyl-sn-glycero-3-phosphocholine (1:1:0.15:0.15, w/w, respectively) (Avanti Polar Lipids) in chloroform, was dried to a film under nitrogen. Following hydration in PBS or 0.15 M NaCl for 30 min, multilamellar vesicles were generated by vigorous vortexing for 5 minutes. LDL were isolated from the plasma of normal blood donors by density gradient ultracentrifugation (density=1.019-1.063 g/ml) as previously described in Qin et al., Am. J. Physiol. 274(5 Pt 2): H1836-1840 (1998), and stored in saline-EDTA. Just prior to use, EDTA was removed by dialysis against PBS, and the concentration of LDL was determined by Lowry assay (in milligrams of LDL-associated protein).
Stock solutions of 10 mM CuSO4 were freshly prepared daily. Reaction mixtures containing 1 mg/mi surfactant lipids or 150 μg/ml LDL were incubated with 10 μM CuSO4 for 24 hours or 4 hours, respectively, in the presence of putative oxidation inhibitors or controls at 37° C. in a shaking water bath in accordance with the method of Gelvan et al., Biochim. Biophys. Acta 1035(3):353-360 (1990). Control reactions which included LDL only, 10 μM CuSO4 or protein controls of bovine serum albumin (BSA), rat IgG, recombinant MBP, rat serum and human complement C1q were performed concurrently with experimental samples. Thiobarbituric acid-reactive substances (TBARS) were measured using a method adapted from Gelvan et al., Biochim. Biophys. Acta 1035(3):353-360 (1990). Samples and 0-10 μM […] standards were developed by addition of a solution composed of 0.375% thiobarbituric acid, 15% trichloroacetic acid, and 0.25N HCl at a volume ratio of 1:2, sample: developer. Following incubation at 95° C. for 30 minutes and centrifugation at 14,000 rpm for 15 minutes, an aliquot was read at 540 nm in a spectrophotometer. For continuous assessment of lipid oxidation, the accumulation of conjugated dienes during LDL oxidation was monitored spectrophotometrically in accordance with the method of Esterbauer et al., Free Rad. Med. Biol. 13, 341-390 (1992). Mixtures of 150 μg/ml LDL, 10 μM copper, and various amounts of surfactant proteins or control proteins were placed in quartz cuvettes and allowed to oxidize at room temperature over 335 minutes. Conjugated diene formation was assessed by measuring absorbance at 234 nm in a spectrophotometer.
The data are set forth graphically in FIG. 3. Various concentrations of recombinant wild type SP-A (circle), mutant SP-A containing a deletion of the collagen-like domain (square) and mutant SP-A containing only the neck and C-lectin domain (CLD) (triangle) were incubated with LDL in the presence of 10 μM Cu^2+, and lipid peroxidation was quantified by TBARS assay. Data are means, n=3-4.

[5] = tested on: LDL; test: Western (immunoblot) analysis of protein carbonyl derivatives formed during copper mediated LDL oxidation; format: biochemical, human; settings: SP-A 10 μg/ml, SP-D 1 μg/ml; alkylated SP-A 50 μg/ml, alkylated SP-D 10 μg/ml
Experimental: Proteins were analyzed for carbonyl modification of amino acid side groups that occur during lipid oxidation, as described in Levine et al., Methods Enzymol. 186, 464-478 (1990). Briefly, proteins that were included in reactions mixtures with LDL and 10 μM copper were derivatized to 2,4-dinitrophenylhydrazones (DNP-hydrazones) by reaction with 2,4-dinitrophenylhydrazine (DNPH), size fractionated by 8-16% SDS-PAGE under reducing conditions and electrophorectically transferred to nitrocellulose membranes (Oxyblot, Intergen). The membrane was sequentially incubated with a rabbit anti-DNP IgG and a horseradish peroxidase-conjugated goat anti-rabbit IgG. Blots were developed by HRP-dependent oxidation of a chemiluminescent substrate, and visualized using autoradiography.
To determine if the surfactant proteins act as sinks for reactive lipid intermediates, covalent modification of SP-A and SP-D during LDL oxidation was assessed using a western analysis technique that detects carbonyl adducts (Levine et al., Methods Enzymol. 186: 464-78 (1990)). As depicted by FIG. 4, oxidative modification of proteins that occurred during copper induced LDL oxidation were determined by Western analysis using an antibody to DNP-derivatized carbonyl moieties. Reaction mixtures contained LDL only, LDL+Cu^2+, LDL+Cu^2++albumin+10 μg/ml SP-A, LDL+Cu^2++albumin+1 μg/ml SP-D, LDL+Cu^2++albumin, LDL+Cu^2++albumin+50 μg/ml iodoacetamide treated SP-A, LDL+Cu^2++albumin+10 μg/ml iodoacetamide treated SP-D, 50 μg/ml albumin+50 μg/ml iodoacetamide treated SP-A, albumin+10 μg/ml iodoacetamide treated SP-D.

[6] = tested on: surfactant lipids; settings: comparison value; read-out: I.C.50 of antioxidant serum lipoprotein; cited from earlier work

recombinant mouse SP-A: recombinant mouse SP-A
Inhibition of E. coli growth in presence of anti-mouse SP-A / anti-mouse SP-D antibodies [1]: blocked | Inhibition of E. coli growth in presence of excess LPS vesicles [1]: blocked

lysozyme: positive control protein lysozyme [reference compound]
Clearing in E. coli plates ([1]; 0.5 and 5.0 μg added): dose-dependent clearing | Clearing in GBS plates [2]: dose-dependent clearing

Clq: human complement C1q, the first component of complement [reference compound]
Protection from oxidation of surfactant lipids ([3]; 50 μg/ml control protein): no protection from oxidation | TBARS Surfactant lipids Malondialdehyde ([3]; Lipid + Cu2+ + 50 μg/ml protein, mean ± S.E.M., n=3): 1.15 ± 0.07 µM | Effect on LDL lipid oxidation ([4]; 50 μg/ml): no effect on LDL lipid oxidation | TBARS LDL Malondialdehyde ([4]; LDL + Cu2+ + 50 μg/ml protein): 4.16 ± 0.05 µM

B1: recombinant mouse SP-D: recombinant mouse SP-D (protein)
chain: AEMKSLSQRSVPNTCTLVMCSPTENGLPGRDGRDGREGPRGEKGDPGLPGPMGLSGLQGPTGPVGPKGENGSAGEPGPKGERGLSGPPGLPGIPGPAGKEGPSGKQGNIGPQGKPGPKGEAGPKGEVGAPGMQGSTGAKGSTGPKGERGAPGVQGAPGNAGAAGPAGPAGPQGAPGSRGPPGLKGDRGVPGDRGIKGESGLPDSAALRQQMEALKGKLQRLEVAFSHYQKAALFPDGRSVGDKIFRTADSEKPFEDAQEMCKQAGGQLASPRSATENAAIQQLITAHNKAAFLSMTDVGTEGKFTYPTGEPLVYSNWAPGEPNNNGGAENCVEIFTNGQWNDKACGEQRLVICEF
Inhibition of E. coli growth in presence of anti-mouse SP-A / anti-mouse SP-D antibodies [1]: blocked | Inhibition of E. coli growth in presence of excess LPS vesicles [1]: blocked

B2: alkylated SP-D: rat SP-D alkylated by incubation with 0.5 M iodoacetamide (protein, UniProt P35248 20-374, looked up)
Pulmonary …: AEMKTLSQRSITNTCTLVLCSPTENGLPGRDGRDGREGPRGEKGDPGLPGPMGLSGLPGPRGPVGPKGENGSAGEPGPKGERGLVGPPGSPGISGPAGKEGPSGKQGNIGPQGKPGPKGEAGPKGEVGAPGMQGSAGAKGPAGPKGERGAPGEQGAPGNAGAAGPAGPAGPQGAPGSRGPPGLKGDRGAPGDRGIKGESGLPDSAALRQQMEALNGKLQRLEAAFSRYKKAALFPDGQSVGDKIFRAANSEEPFEDAKEMCRQAGGQLASPRSATENAAVQQLVTAHSKAAFLSMTDVGTEGKFTYPTGEALVYSNWAPGEPNNNGGAENCVEIFTNGQWNDKACGEQRLVICEF
modifications: alkylated with iodoacetamide
notes: rat SP-D alkylated by incubation with 0.5 M iodoacetamide
TBARS LDL Malondialdehyde ([4]; LDL + Cu2+ + 10 μg/ml protein): 3.92 ± 0.14 µM | LDL oxidation in carbonyl Western analysis [5]: neither alkylated SP-A at 50 μg/ml or alkylated SP-D at 10 μg/ml inhibited lipid oxidation

B3: ApoAIV: antioxidant serum lipoprotein ApoAIV (protein, UniProt P06727 21-396, looked up)
Apolipoprotein A-IV: EVSADQVATVMWDYFSQLSNNAKEAVEHLQKSELTQQLNALFQDKLGEVNTYAGDLQKKLVPFATELHERLAKDSEKLKEEIGKELEELRARLLPHANEVSQKIGDNLRELQQRLEPYADQLRTQVSTQAEQLRRQLTPYAQRMERVLRENADSLQASLRPHADELKAKIDQNVEELKGRLTPYADEFKVKIDQTVEELRRSLAPYAQDTQEKLNHQLEGLTFQMKKNAEELKARISASAEELRQRLAPLAEDVRGNLRGNTEGLQKSLAELGGHLDQQVEEFRRRVEPYGENFNKALVQQMEQLRQKLGPHAGDVEGHLSFLEKDLRDKVNSFFSTFKEKESQDKTLSLPELEQQQEQQQEQQQEQVQMLAPLES
IC50 [6]: 50 nM
